pEC50, pIC50: −log10 of the molar value. Read-outs that look alike come from different tables or passages of the source. Where only a bound is given, the exact number is not on record here.

Broadly, the pEC50 is −log10 of the EC50, conventionally taken in molar units. As a reminder, the pIC50 is the negative decadic logarithm of the IC50, by convention in mol/L.

One data set has as its system Yucatan mini-pig skin. Put plainly: Topical delivery in the Yucatan mini pig. It is filed as in vivo. An excerpt:
(§1) Compound 13 treatment, in an exemplary embodiment, promotes wound healing in human cells and induces a pro-proliferative effect on keratinocytes in the human skin surrogate species, the Yucatan mini pig. Accordingly, there was developed a gel-based formulation of compound 13, which allows for its stable room temperature storage and its topical delivery in high concentrations (up to about 1.5 weight percent).

Data set [1] has as its system epidermis of wildtype adult C57BL/6 mice. Put plainly: Topical application to dorsal skin of C57BL/6 mice (epidermal remodeling). The class given is in vivo, mouse. The procedure: When applied topically to the dorsal skin of wildtype adult C57BL/6 mice over the course of ten days, compound 13 (10 uM) promoted a dramatic expansion of keratinocytes and K14-positive precursors as assessed by […] and anti-K14 histological staining at study end (FIG. 2D).
as §1

The test system of another data set is YAP. Put plainly: TEAD-LUC activation assay (293A-TEAD-LUC reporter). It is filed as cell-based. Conditions: Homo sapiens.
Data set [2] in a line: Cytotoxicity in the TEAD-LUC activation assay. The settings on record: human.
A further data set deals with YAP and TEAD proteins. Put plainly: YAP-TEAD association and YAP nuclear localization in cells. The class given is cell-based.
The test system of data set [3] is primary mouse epidermal keratinocytes. As to the kind of experiment: Colony formation of primary mouse epidermal keratinocytes on dermal feeder layer. The class given is cell-based. The settings on record: 10-day growth period on dermal feeder layer. The text has this:
We evaluated the proliferative response of primary cells and tissues to compound 13 treatment. […] In addition, compound 13 treatment allowed for the secondary re-plated expansion of Rhodamine B-stained keratinocytes and the time-dependent expression of YAP-driven transcript Cyr61 (FIGS. 2A-C).

Data set [4] has as its system YAP-controlled transcripts (ANRKD1, CYR61, CTGF). Put plainly: YAP-controlled transcript levels in 293A and other human cell lines. It is filed as cell-based.
The subject of the next data set is human skin equivalents. Put plainly: Wound healing in human skin equivalents (3 mm full thickness wound). The class given is cell-based.
Text: as §1

The next data set is described as follows: in vitro. Conditions: human.
Setting [5] is: Table 3, read-out: TEAD-LUC activation assay EC50.
Where [6] appears, read: Table 4, read-out: TEAD-LUC activation assay EC50.

As for `O=C(NCCCc1nccs1)c1cc(-c2ccccc2)on1` [Compound 13, 5-phenyl-N-(3-(thiazol-2-yl)propyl)isoxazole-3-carboxamide], in the data set on Yucatan mini-pig skin, the “epidermal hyperplasia, dermal hyperplasia, YAP-dependent gene expression” value is “promoted epidermal hyperplasia, dermal hyperplasia, and YAP-dependent gene expression”. Moreover, in data set [1] (endpoint of the experiment), the “YAP-dependent transcripts Ctgf, Cyr61, and Ankrd1” value is recorded as “robust upregulation”. In [1] (topical delivery, mouse), the “epidermal thickening, gel-based formulation versus drug in acetone or DMSO” value is recorded as “to a more significant degree”. Besides, in data set [1] (topical, ten days, 10 uM, wildtype mice), the epidermal thickness result is reported as “approximate doubling”. For the same molecule, the KI-67 positive keratinocytes entry in [1] (topical, ten days, study end) is listed as “substantially increased”. The pEC50 in the data set with YAP (setting [5]) is 6.00; in the data set on YAP (absence of serum, high cell density, read-out: EC50 of luciferase activity induction in 293A-TEAD-LUC cells), 5.80; in the data set on YAP (presence of serum, high cell density, read-out: EC50 of luciferase activity induction in 293A-TEAD-LUC cells), 5.82. In data set [2], the pIC50 was 4.86. The “association of YAP and TEAD proteins in cells” value in the data set with YAP and TEAD proteins is recorded as “dose-dependently promoted”. Besides, the “nuclear localization of YAP” value in the data set with YAP and TEAD proteins (in response to increased cell density) is on record as “induced the nuclear localization of YAP”. The molecule also came in with a colony forming potential in data set [3] of approximately 10 fold. Further, the “levels of YAP-controlled transcripts (ANRKD1, CYR61, CTGF)” value in data set [4] (293A cells and MCF-10A, HEK293T, H69, HaCaT) was “robustly increased”. Besides, the “levels of YAP itself (YAP1)” value in data set [4] (293A cells and other human cell lines) is “did not augment”. In the data set with human skin equivalents, the “keratinocyte hyperplasia and wound contraction” value is “promoted the hyperplasia of keratinocytes and promoted wound contraction”.

`CN1[C@H]2CC[C@@H]1CN(C(=O)c1cc(-c3ccccc3)on1)CC2` [Compound 129]: the negative-log IC50 (pIC50) in “in vitro” is less than 4.70. Besides, in the data set with YAP (setting [6]), the pEC50 was less than 4.70.

Take `N#Cc1cccc(NC(=O)c2cc(-c3ccncc3)[nH]n2)c1` [Compound 154]: the pEC50 with YAP (setting [6]) was 5.70. For the same molecule, the pIC50 in [2] is less than 4.70.

Consider `O=C(NCCc1cccc(C(F)(F)F)c1)c1cc(-c2ccccc2)on1` [Compound 69], for which the pEC50 in the data set with YAP (setting [5]) is less than 4.70. In data set [2], this molecule had a pIC50 of less than 4.70.

With `O=C(NCCCc1nccs1)c1noc(-c2ccccc2)c1-c1ccccc1` [Compound 33], the pEC50 in the data set on YAP (setting [5]) is less than 4.70. Moreover, the pIC50 in [2] was less than 4.62.

With `O=C(NCCn1cccc1)c1cc(-c2ccccc2)on1` [Compound 15], in the data set on YAP (setting [5]), the pEC50 was 5.73. For the same molecule, the pIC50 in [2] is less than 4.70.

With `O=C(NCCCn1cccc1)c1cc(-c2ccc(F)cc2)on1` [Compound 2], the pEC50 with YAP (setting [5]) is 5.95. This molecule also had a pIC50 in data set [2] of less than 4.70.

Turning to `Cc1ccn(CCCNC(=O)c2cc(-c3ccccc3)on2)c1` [Compound 19], the pEC50 in the data set on YAP (setting [5]) was 5.29. The pIC50 in data set [2] was less than 4.70.

`O=C(NCCc1ccc(F)c(Cl)c1)c1cc(-c2ccccc2)on1` [Compound 68]: the pEC50 with YAP (setting [5]) is less than 4.70. For the same molecule, the pIC50 in [2] is less than 4.70.

`CCN1CCN(C(CNC(=O)c2cc(-c3ccccc3)on2)c2ccc(OC)cc2)CC1` (stereo not shown) [Compound 118]: the pEC50 in the data set on YAP (setting [6]) was less than 4.70. Also, the pIC50 in [2] is less than 4.70.

`O=C(NCCc1ccc(Cl)c(F)c1)c1cc(-c2ccccc2)on1` [Compound 47]: the pEC50 with YAP (setting [5]) is less than 4.70. In [2], this molecule gave a pIC50 of 4.82.

Regarding `COc1ccc(-c2cc(C(=O)NCCCn3cccc3)no2)cc1` [Compound 3], the pEC50 in the data set on YAP (setting [5]) is less than 4.70. Also, the pIC50 in data set [2] was less than 4.70.

Source of the values: patent US20240148747A1, “SMALL MOLECULE ACTIVATORS OF YAP TRANSCRIPTIONAL ACTIVITY FOR REGENERATIVE ORGAN REPAIR” (THE SCRIPPS RESEARCH INSTITUTE, priority 2021, published 2024).
